Data taken from article PMC10803289, “Transport and inhibition mechanism of the human SGLT2–MAP17 glucose transporter” (Nature Structural & Molecular Biology, 2023).
Residue numbers refer to the chain shown, from its start. Several values for one entry are separate records, joined by “and”; a condition that tells them apart may be missing. Identical values can stand only once.

Tests used:
[1] = target: T1, wild-type hSGLT2 (membrane fraction of hSGLT2 and MAP17 expressing cells) (Homo sapiens, UniProt P31639); assay: SGLT2 inhibitor-binding assay via affinity selection–mass spectrometry, crude membrane, WT
T1 construct: expressed in transfected cells; host or cells: Expi293 cells, crude membrane fraction
T1 sequence (P31639 1-672): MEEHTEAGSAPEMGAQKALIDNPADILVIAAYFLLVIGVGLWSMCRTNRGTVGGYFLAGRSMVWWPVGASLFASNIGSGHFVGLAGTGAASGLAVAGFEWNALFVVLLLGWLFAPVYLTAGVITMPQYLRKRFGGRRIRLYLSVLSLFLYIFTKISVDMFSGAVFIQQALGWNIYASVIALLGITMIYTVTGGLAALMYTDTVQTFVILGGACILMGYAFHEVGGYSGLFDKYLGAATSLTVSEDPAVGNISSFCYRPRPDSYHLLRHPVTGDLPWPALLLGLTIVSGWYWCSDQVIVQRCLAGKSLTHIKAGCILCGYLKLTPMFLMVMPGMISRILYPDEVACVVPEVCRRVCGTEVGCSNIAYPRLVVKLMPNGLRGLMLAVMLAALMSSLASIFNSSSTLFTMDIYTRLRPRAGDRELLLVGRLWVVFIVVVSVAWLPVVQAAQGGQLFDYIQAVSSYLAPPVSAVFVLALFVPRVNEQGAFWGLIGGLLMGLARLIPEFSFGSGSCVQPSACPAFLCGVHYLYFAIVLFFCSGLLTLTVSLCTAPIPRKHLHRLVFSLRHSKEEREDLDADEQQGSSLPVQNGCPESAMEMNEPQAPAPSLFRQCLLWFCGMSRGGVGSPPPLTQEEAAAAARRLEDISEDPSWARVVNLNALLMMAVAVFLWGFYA
T1 sequence (Q13113 1-114 partner): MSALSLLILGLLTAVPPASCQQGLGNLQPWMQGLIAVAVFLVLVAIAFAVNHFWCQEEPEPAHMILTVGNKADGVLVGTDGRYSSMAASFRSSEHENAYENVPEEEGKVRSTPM
Method: (§1) To examine the inhibition of binding to the crude membrane, mammalian Expi293 cells were co-transfected with the hMAP17 and hSGLT2 plasmids, as described. The cells were collected and disrupted by sonication in a hypotonic buffer (50 mM HEPES–NaOH (pH 7.5), 10 mM KCl and protease inhibitor cocktail) or Na^+-free hypotonic buffer (50 mM Tris–HCl (pH 7.5), 10 mM KCl and protease inhibitor cocktail). The cell debris were removed by centrifugation (2,000g, 5 min, 4 °C). The membrane fraction was collected by ultracentrifugation (112,000g, 30 min, 4 °C) and stored at −80 °C before use. The crude membrane (250 μg per sample) was incubated with SGLT2 inhibitor in an assay buffer (100 mM NaCl and 10 mM HEPES/Tris, pH 7.4) or Na^+-free assay buffer (100 mM choline chloride and 10 mM HEPES/Tris, pH 7.4) at room temperature for 2 h. Reactions were terminated by filtration through a GF/C filter plate (Corning) presoaked in assay buffer containing 0.1% bovine serum albumin. The sample in the filter plate was washed three times with the assay buffer and eluted with acetonitrile: water (80:20, v/v). The extract solution from the filter plate was diluted with water containing candesartan as an internal standard, and the SGLT2 inhibitor concentration was quantified via LC–MS/MS.
(§2) Nonspecific binding was measured using the crude membrane of nontransfected Expi293 cells. Specific binding was calculated by subtracting nonspecific binding from the binding of hSGLT2-expressing cells. Specific binding was normalized to hSGLT2 protein expression levels, measured via FSEC. The equilibrium dissociation constant (Kd) and maximum number of binding sites (Bmax) were calculated via nonlinear regression in GraphPad Prism 8.4.3. The specific binding of the hSGLT2 mutants was normalized to the Bmax of WT hSGLT2.
(§3) The concentrations of the extract solution from the filter plate and of the cell lysate were quantified using a tandem mass spectrometry QTRAP6500 System (SCIEX) coupled with an ACQUITY UPLC system (Waters) using the internal standard method. Mobile phases A and B used 10 mM of ammonium bicarbonate and acetonitrile, respectively.

[2] = test system: nontransfected Expi293 cells (Mock); assay: Nonspecific binding to crude membrane of nontransfected cells (Mock); set-up: species or system human; details: Mock
Method: as §1, §2, §3

SGLT1 and SGLT2 = details: cited from earlier work; for subtype specificity of inhibition (SGLT1 vs SGLT2): in words
hSGLT2 S74A = target: T2, hSGLT2 S74A (Homo sapiens, UniProt P31639, S74A); format: binding; details: S74A mutant
T2 construct: expressed in transfected cells; host or cells: Expi293 cells, crude membrane fraction
T2 sequence (P31639 whole entry S74A, one chain of several): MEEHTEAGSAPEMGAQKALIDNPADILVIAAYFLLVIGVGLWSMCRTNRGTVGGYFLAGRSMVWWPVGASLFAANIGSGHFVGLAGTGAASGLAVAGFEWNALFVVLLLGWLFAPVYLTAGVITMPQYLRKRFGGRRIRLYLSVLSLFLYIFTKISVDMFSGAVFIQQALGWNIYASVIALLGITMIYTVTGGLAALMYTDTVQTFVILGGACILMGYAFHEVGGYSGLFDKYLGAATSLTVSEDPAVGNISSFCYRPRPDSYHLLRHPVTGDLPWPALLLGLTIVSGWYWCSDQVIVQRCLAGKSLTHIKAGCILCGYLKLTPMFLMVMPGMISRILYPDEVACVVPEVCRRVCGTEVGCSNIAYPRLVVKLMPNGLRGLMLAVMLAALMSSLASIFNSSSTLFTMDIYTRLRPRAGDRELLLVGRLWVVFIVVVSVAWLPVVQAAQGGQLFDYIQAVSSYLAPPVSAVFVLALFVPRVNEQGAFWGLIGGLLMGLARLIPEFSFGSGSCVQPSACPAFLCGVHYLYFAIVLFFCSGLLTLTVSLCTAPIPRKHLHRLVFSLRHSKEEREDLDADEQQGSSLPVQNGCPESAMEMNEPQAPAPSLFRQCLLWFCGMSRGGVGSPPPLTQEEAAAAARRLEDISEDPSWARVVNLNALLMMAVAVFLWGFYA
Excerpt: (§4) hSGLT2 complementary DNA and human MAP17 cDNA were synthesized and codon-optimized for expression in human cell lines. Both cDNAs were cloned into the pcDNA3.4 vector. The hSGLT2 sequence was fused with an N-terminal signal sequence from human trypsinogen 1, a His10 tag, and sfGFP, followed by a human rhinovirus 3C protease (HRV3C protease) recognition site. Point mutations were introduced into this construct using site-directed mutagenesis. These plasmids were utilized for all experimental procedures conducted in this study.
To examine the inhibition of binding to the crude membrane, mammalian Expi293 cells were co-transfected with the hMAP17 and hSGLT2 plasmids, as described. The cells were collected and disrupted by sonication in a hypotonic buffer (50 mM HEPES–NaOH (pH 7.5), 10 mM KCl and protease inhibitor cocktail) or Na^+-free hypotonic buffer (50 mM Tris–HCl (pH 7.5), 10 mM KCl and protease inhibitor cocktail). The cell debris were removed by centrifugation (2,000g, 5 min, 4 °C). The membrane fraction was collected by ultracentrifugation (112,000g, 30 min, 4 °C) and stored at −80 °C before use. […] The extract solution from the filter plate was diluted with water containing candesartan as an internal standard, and the SGLT2 inhibitor concentration was quantified via LC–MS/MS.
as §2, with “The specific binding of the hSGLT2 mutants was normalized to the Bmax of WT hSGLT2.” left out
The concentrations of the extract solution from the filter plate and of the cell lysate were quantified using a tandem mass spectrometry QTRAP6500 System (SCIEX) coupled with an ACQUITY UPLC system (Waters) using the internal standard method. […]

hSGLT2 D201A = target: T3, hSGLT2 D201A (Homo sapiens, UniProt P31639, D201A); assay: SGLT2 inhibitor-binding assay (AS-MS), crude membrane, D201A mutant; set-up: expressed in transfected cells; host or cells: Expi293 cells, crude membrane fraction; details: D201A mutant
T3 sequence (P31639 1-672 D201A): T1 sequence (P31639 1-672) with D201A
T3 sequence (Q13113 1-114 partner): T1 sequence (Q13113 1-114 partner)
Excerpt: as §4
To examine the inhibition of binding to the crude membrane, mammalian Expi293 cells were co-transfected with the hMAP17 and hSGLT2 plasmids, as described. […] The extract solution from the filter plate was diluted with water containing candesartan as an internal standard, and the SGLT2 inhibitor concentration was quantified via LC–MS/MS.
as §2, with “The specific binding of the hSGLT2 mutants was normalized to the Bmax of WT hSGLT2.” left out

hSGLT2 V95I = test system: hSGLT2 V95I; set-up: method as in PMID 34880493; details: cited from earlier work
SGLT2 = test system: SGLT2; set-up: method as in Hummel et al., Am. J. Physiol., Cell Physiol., 2011; details: authors' rebuttal in peer review file; ref Hummel et al., Am. J. Physiol., Cell Physiol., 2011; cited from earlier work
SGLT1 T395A = test system: SGLT1 T395A; set-up: method as in PMID 30532032; details: replacement of T395 with Ala at the Na3 site; cited from earlier work

In the case of `CCOc1ccc(Cc2cc([C@@H]3O[C@H](CO)[C@@H](O)[C@H](O)[C@H]3O)ccc2Cl)cc1` [Dapagliflozin], the “Binding (% of hSGLT2)” value ([1]; 10 nM dapagliflozin) is given as 83.4507 % of hSGLT2 and 95.0704 % of hSGLT2 and 121.479 % of hSGLT2, the “Binding (% of hSGLT2)” value ([2]; 10 nM dapagliflozin) is given as 2.53 % of hSGLT2 and 3.518 % of hSGLT2 and 3.481 % of hSGLT2 and the “fold difference in inhibition between SGLT1 and SGLT2” value (SGLT1 and SGLT2) is given as “more than 1,000 fold”. The “subtype specificity of inhibition (SGLT1 vs SGLT2)” value (SGLT1 and SGLT2) was “SGLT2-specific inhibition”.

In the case of `CS[C@H]1O[C@@H](c2ccc(C)c(Cc3ccc(CCCC(=O)NC(C)(C)C(=O)NCCN(C)C)cc3)c2)[C@H](O)[C@@H](O)[C@@H]1O` [LX-2761], the “subtype specificity of inhibition (SGLT1 vs SGLT2)” value (SGLT1 and SGLT2) is given as “dual inhibitors”.

In the case of `O=C(CCc1ccc(O)cc1)c1c(O)cc(O)cc1O` [Phloretin], the “phloretin binding (in words)” value ([1]; WT) is reported as “binds as effectively as phlorizin”, the Bmax ([1]; phloretin, WT, mean ± SEM n=4) is reported as 51.7 ± 3.46 pmol/mg-protein and the Kd ([1]; phloretin, WT, mean ± SEM n=4) is reported as 12000 ± 1900 nM. For the same compound, the “phloretin binding (in words)” value (hSGLT2 S74A) was “not” and the “phloretin binding (in words)” value (hSGLT2 D201A) was “not”.

For `CCOc1ccc(Cc2cc([C@@H]3O[C@H](SC)[C@@H](O)[C@H](O)[C@H]3O)ccc2Cl)cc1` [Sotagliflozin], the “Binding (% of hSGLT2)” value ([1]; 50 nM sotagliflozin) is listed as 96.1006 % of hSGLT2 and 97.9874 % of hSGLT2 and 105.912 % of hSGLT2, the “Binding (% of hSGLT2)” value ([2]; 50 nM sotagliflozin) is listed as 19.1195 % of hSGLT2 and 17.8616 % of hSGLT2 and 17.9874 % of hSGLT2 and the “subtype specificity of inhibition (SGLT1 vs SGLT2)” value (SGLT1 and SGLT2) is listed as “dual inhibitors”.

With `OC[C@H]1O[C@@H](n2cc(Cc3ccc(C4CC4)cc3)c3c(F)cccc32)[C@H](O)[C@@H](O)[C@@H]1O` [TA-1887] the “Binding (% of hSGLT2)” value ([1]; 10 nM TA-1887) was 96.8051 % of hSGLT2 and 101.597 % of hSGLT2, the Bmax ([1]; Na(+), mean ± SEM n=3) was 4.67 ± 0.49 pmol/mg-protein and the Kd ([1]; Na(+), mean ± SEM n=3) was 115 ± 28 nM. The Bmax ([1]; Na(-), mean ± SEM n=3) was 0.705 ± 0.155 pmol/mg-protein, the Kd ([1]; Na(-), mean ± SEM n=3) was 86.4 ± 50 nM and the “Bmax in the absence versus the presence of Na+ (in words)” value ([1]; absence vs presence of Na+) was “partially lower”. For the same compound, the “Binding (% of hSGLT2)” value ([2]; 10 nM TA-1887) was 13.0351 % of hSGLT2 and 13.9457 % of hSGLT2 and 14.6645 % of hSGLT2 and the “subtype specificity of inhibition (SGLT1 vs SGLT2)” value (SGLT1 and SGLT2) was “SGLT2-specific inhibition”.

In the case of `OC[C@H]1O[C@@H](c2ccc(Cl)c(Cc3ccc(O[C@H]4CCOC4)cc3)c2)[C@H](O)[C@@H](O)[C@@H]1O` [empagliflozin], the “subtype specificity of inhibition (SGLT1 vs SGLT2)” value (SGLT1 and SGLT2) is listed as “SGLT2-specific inhibition” and the “effect of V95I on inhibitory activity” value (hSGLT2 V95I) is listed as “reduces the inhibitory activity”.

In the case of `OC[C@H]1OC(O)[C@H](O)[C@@H](O)[C@@H]1O` (stereo partly shown) [glucose], the Michaelis constant (SGLT2) is given as 5 mM and the “reduction in glucose affinity” value (SGLT1 T395A) is given as “more than 30 fold”.
